Results reported in patent US11795147B2, “Modulators of complex I” (Boehringer Ingelheim International GmbH, priority 2019, dated 2023).
pIC50: −log10 of the molar value. Where two headings read alike, the source gives them in different places.

Key:
HT-22 cells = assay type: cell-based, mice; settings: Mus musculus, read-out: HT22 IC50
Complex I = experiment: Assay A: Determination of Complex I mediated ROS-inhibition (CI); assay type: biochemical; settings: read-out: CI IC50; ROS generation by Complex I purified from bovine heart, Amplex Red/horse radish peroxidase readout, 8 point concentration-response

SMILES	pIC50 (Complex I)	further results
CN1CCC(N2C(=O)/C(=C3/CCCN3)c3cc(N(C)C)ccc32)CC1 [Compound 109]		pIC50 (HT-22 cells; HT-22, 16 h): 6.80
Nc1ccc2c(c1)/C(=C1/NCCN(C(=O)OCc3ccccc3)C1O)C(=O)N2C1CCNCC1 (stereo not shown) [Compound 87]		pIC50 (HT-22 cells; HT-22, 16 h): 6.00
CCOC(=O)N1CCC(N2C(=O)/C(=C3/COCCN3)c3cc(N4C(C)CCC4C)ccc32)CC1 (stereo not shown) [Compound 11]		pIC50 (HT-22 cells; HT-22, 16 h): 7.42
CC(Nc1ccc2c(c1)/C(=C1\COCCN1)C(=O)N2C(C)C)c1ccnn1C (stereo not shown) [Compound 17]	7.66	
CC(=O)N1CCN/C(=C2\C(=O)N(C(C)C)c3ccc(NC(C)C)cc32)C1 [Compound 159]	6.92	
O=C1/C(=C2/COCCN2)c2cc(NC3CCCC3)ccc2N1C1COC1 [Compound 65]	6.71	
CN(C)c1ccc2c(c1)/C(=C1\CCN(C(=O)OCc3ccccc3)CCN1)C(=O)N2C [Compound 108]	6.93	
CCC(CC)Nc1ccc2c(c1)/C(=C1\COCCN1)C(=O)N2C1COC1 [Compound 136]	6.67	
CCC(C)Nc1ccc2c(c1)/C(=C1\COCCN1)C(=O)N2C(C)C (stereo not shown) [Compound 54]	6.69	
CN1C(=O)/C(=C2/CCOCCN2)c2cc(N3CCCC3)ccc21 [Compound 107]	6.52	
CN1C(=O)/C(=C2/CCN(C(=O)OCc3ccccc3)CCN2)c2cc(N3CCCC3)ccc21 [Compound 152]	6.32	
CC(C)N1C(=O)/C(=C2/COCCN2)c2cc(NCC(C)(C)C)ccc21 [Compound 145]	6.74	
O=C1/C(=C2/COCCN2)c2cc(N3CCCCC3)ccc2N1C1CCOCC1 [Compound 86]	7.16	
CN1CCC/C1=C1/C(=O)N(C2CCOCC2)c2ccc(NC3CCC3)cc21 [Compound 9]	6.40	
CC(C)Nc1ccc2c(c1)/C(=C1\CC3(CN1)COC3)C(=O)N2C1CCOCC1 [Compound 165]	6.74	
CC(C)Nc1ccc2c(c1)/C(=C1\COC3(CCN(C(C)C)CC3)CN1)C(=O)N2C(C)C [Compound 138]	6.69	
O=C1/C(=C2/COCCN2)c2cc(NC3CCCC3)ccc2N1C1COCCOC1 [Compound 50]	6.71	
CC(C)Nc1ccc2c(c1)/C(=C1\CCN(C(C)C)CCN1)C(=O)N2C1CCOCC1 [Compound 164]	6.76	
CN1C(=O)/C(=C2/CCNCCN2)c2cc(N3CCCC3)ccc21 [Compound 40]	6.78	
CC1OCCC1Nc1ccc2c(c1)/C(=C1\COCCN1)C(=O)N2C(C)C (stereo not shown) [Compound 125]	7.30	
CC(Nc1ccc2c(c1)/C(=C1\COCCN1)C(=O)N2C1CCOCC1)c1cnccn1 (stereo not shown) [Compound 146]	7.18	
CC(C)N1C(=O)/C(=C2/CCOCCN2)c2cc(N3CCCC3)ccc21 [Compound 129]	6.15	
CC(C)Nc1ccc2c(c1)/C(=C1\COCCCN1)C(=O)N2C1CCOCC1 [Compound 167]	7.19	
CC(C)Nc1ccc2c(c1)/C(=C1\COCCN1)C(=O)N2C(C)(C)C [Compound 90]	6.37	
CC(C)N1C(=O)/C(=C2/CCCCN2)c2cc(N(C3CCC3)C3CCC3)ccc21 [Compound 113]	6.97	
COC1COCCC1Nc1ccc2c(c1)/C(=C1\COCCN1)C(=O)N2C1CCOCC1 (stereo not shown) [Compound 149]	6.79	

SMILES	pIC50 (Complex I)	further results
CC(Nc1ccc2c(c1)/C(=C1\COCCN1)C(=O)N2C1CCOCC1)c1ccccn1 (stereo not shown) [Compound 77]	7.66	
O=C1/C(=C2/COCCN2)c2cc(NCC3CCOC3)ccc2N1C1CCOCC1 (stereo not shown) [Compound 151]	6.63	
CC(C)Nc1ccc2c(c1)/C(=C1\CCCN1C)C(=O)N2C(C)C [Compound 115]	7.10	
CC(Nc1ccc2c(c1)/C(=C1\COCCN1)C(=O)N2C(C)C)c1cnccn1 (stereo not shown) [Compound 57]	7.14	
CC(Nc1ccc2c(c1)/C(=C1\COCCN1)C(=O)N2C(C)C)C1CCC1 (stereo not shown) [Compound 37]	6.39	
CC1CCN(c2ccc3c(c2)/C(=C2\COCCN2)C(=O)N3C2CCOCC2)CC1 [Compound 85]	7.16	
CC(Nc1ccc2c(c1)/C(=C1\COCCN1)C(=O)N2C1COC1)C1CC1 (stereo not shown) [Compound 67]	6.65	
CC(C)Nc1ccc2c(c1)/C(=C1\CN(C(C)C)CCN1)C(=O)N2C(C)C [Compound 88]	7.17	
O=C1/C(=C2/COCCN2)c2cc(NC3CCC3)ccc2N1C1CCOCC1 [Compound 132]	7.26	
CC(C)Nc1ccc2c(c1)/C(=C1\CCCN1C)C(=O)N2C1CCOCC1 [Compound 48]	6.91	
CC(Nc1ccc2c(c1)/C(=C1\COCCN1)C(=O)N2C1CCOCC1)c1cccnc1 (stereo not shown) [Compound 100]	7.47	
O=C1/C(=C2/COCCN2)c2cc(NC3CCOCC3)ccc2N1C1CCOCC1 [Compound 18]	7.96	
O=C(CCO)Nc1ccc2c(c1)/C(=C1\COCCN1)C(=O)N2C1CCOC1 (stereo not shown) [Compound 169]	6.03	
CC(C)N1C(=O)/C(=C2/COCCN2)c2cc(NCC3CCOCC3)ccc21 [Compound 75]	7.14	
CC(C)Nc1ccc2c(c1)C(=C1CCOCC1)C(=O)N2C1CCOCC1 [Compound 6]	6.27	
CN(C)c1ccc2c(c1)/C(=C1\CCOCCN1)C(=O)N2C [Compound 41]	7.28	
CC(C)Nc1ccc2c(c1)/C(=C1\CN(C3CCOCC3)CCN1)C(=O)N2C1CCOCC1 [Compound 24]	7.32	pIC50 (HT-22 cells; protection of HT-22 cells from glutamate (5 mM) induced cell death, 16 hours, Alamar Blue viability): 6.91
CC(C)N1C(=O)/C(=C2/COCCN2)c2cc(NCC3CCOC3)ccc21 (stereo not shown) [Compound 39]	7.17	
CCC(CC)Nc1ccc2c(c1)/C(=C1\COCCN1)C(=O)N2C(C)C [Compound 171]	6.69	
CC(C)Nc1ccc2c(c1)/C(=C1\COCC(C)N1)C(=O)N2C1CCOCC1 (stereo not shown) [Compound 33]	7.49	
CC(C)N1CCC(Nc2ccc3c(c2)/C(=C2\COCCN2)C(=O)N3C2CCOCC2)CC1 [Compound 19]	7.66	
Nc1ccc2c(c1)/C(=C1\COCCN1)C(=O)N2C1CCOCC1 [Compound 35]	7.08	
CC(C)N1C(=O)/C(=C2/CCOCCN2)c2cc(N3C(C)CCC3C)ccc21 (stereo not shown) [Compound 128]	7.36	
CC(C)N1CCC2(CC1)CN/C(=C1\C(=O)N(C(C)C)c3ccc(N4C(C)CCC4C)cc31)CO2 (stereo not shown) [Compound 139]	6.51	
CC(C)CNc1ccc2c(c1)/C(=C1\COCCN1)C(=O)N2C(C)C [Compound 173]	6.44	
O=C1/C(=C2/COCCN2)c2cc(NC3COC3)ccc2N1C1CCOCC1 [Compound 175]	7.01	

SMILES	pIC50 (Complex I)	further results
O=C1/C(=C2/COCCN2)c2cc(NCc3cc[nH]n3)ccc2N1C1CCOCC1 [Compound 21]	6.97	
CC1OCCC1Nc1ccc2c(c1)/C(=C1\COCCN1)C(=O)N2C1CCOCC1 (stereo not shown) [Compound 174]	7.41	
CC(C)N1C(=O)/C(=C2/COCCN2)c2cc(NCC3(C)COC3)ccc21 [Compound 127]	7.09	
O=C1/C(=C2/COCCN2)c2cc(NC3CCCC3)ccc2N1C1CCOCC1 [Compound 60]	6.61	
CC(C)N1C(=O)/C(=C2/COCCN2)c2cc(NCC3CC3)ccc21 [Compound 58]	7.00	
COCC(C)N1C(=O)/C(=C2/COCCN2)c2cc(NC(C)C)ccc21 (stereo not shown) [Compound 28]	7.16	
CC(C)C(C)Nc1ccc2c(c1)/C(=C1\COCCN1)C(=O)N2C1COC1 (stereo not shown) [Compound 66]	6.77	
CC1CCC(C)N1c1ccc2c(c1)/C(=C1\COCCN1)C(=O)N2C (stereo not shown) [Compound 84]	6.48	
CC(Nc1ccc2c(c1)/C(=C1\COCCN1)C(=O)N2C(C)C)C1CCCC1 (stereo not shown) [Compound 56]	6.80	
CC(C)Nc1ccc2c(c1)/C(=C1\CN(C3COC3)CCN1)C(=O)N2C(C)C [Compound 114]	7.24	
CC(C)Nc1ccc2c(c1)/C(=C1\COCCN1)C(=O)N2C1CCN(C(C)C)CC1 [Compound 92]		pIC50 (HT-22 cells; HT-22, 16 h): 7.36
COCC(C)N1C(=O)/C(=C2/COCCN2)c2cc(N3CCCC3)ccc21 (stereo not shown) [Compound 68]	6.20	
CC(C)N1C(=O)/C(=C2/COCCN2)c2cc(NCc3cc[nH]n3)ccc21 [Compound 74]	7.34	
CN1CCC(Nc2ccc3c(c2)/C(=C2\COCCN2)C(=O)N3C2CCOCC2)CC1 [Compound 150]	7.32	
CC(C)N1C(=O)/C(=C2/COCCN2)c2cc(NC3COC3)ccc21 [Compound 98]	6.73	
CN1CCC/C1=C1/C(=O)N(C2CCOCC2)c2ccc(NC3CCOC3)cc21 (stereo not shown) [Compound 49]	6.55	
O=C1/C(=C2/COCCN2)c2cc(NCC3CCOCC3)ccc2N1C1CCOCC1 [Compound 81]	6.89	
CC(C)Nc1ccc2c(c1)/C(=C1\COCCN1)C(=O)N2[C@H]1CCN(C2COC2)C1 [Compound 69]	7.26	
CC1COC/C(=C2/C(=O)N(C3CCOCC3)c3ccc(N4C(C)CCC4C)cc32)N1 (stereo not shown) [Compound 93]	7.62	
CC(C)N1C(=O)C(=C2CCOCC2)c2cc(NC3CCC3)ccc21 [Compound 25]	6.15	
CN(C)c1ccc2c(c1)C(=C1NCC3(CCCCC3)CN1)C(=O)N2C [Compound 104]	6.15	
CC(C)N1C(=O)/C(=C2/COCCN2)c2cc(NC3CCOCC3F)ccc21 (stereo not shown) [Compound 73]	7.18	
CC(C)N1C(=O)/C(=C2/COCCN2)c2cc(NC3CCN(C)CC3)ccc21 [Compound 38]	7.29	
CC(Nc1ccc2c(c1)/C(=C1\COCCN1)C(=O)N2C1CCOCC1)c1ccnn1C (stereo not shown) [Compound 79]	7.70	
O=C1/C(=C2/CCOCCN2)c2cc(NC3CCOC3)ccc2N1C1CCOCC1 (stereo not shown) [Compound 140]	7.08	
CC(C)N1C(=O)/C(=C2/COCCN2)c2cc(NC3CCCC3)ccc21 [Compound 94]	6.25	
